Literature values in patent US20250228825A1, “COMPOSITIONS OF RAPAMYCIN AND THEIR USE IN THE TREATMENT OF M[…] MALFORMATION” (priority 2021, published 2025).

Test system: LM lesions
Conditions: patients with LM

For `CO[C@H]1C[C@@H]2CC[C@@H](C)[C@@](O)(O2)C(=O)C(=O)N2CCCC[C@H]2C(=O)O[C@H]([C@H](C)C[C@@H]2CC[C@@H](O)[C@H](OC)C2)CC(=O)[C@H](C)/C=C(\C)[C@@H](O)[C@@H](OC)C(=O)[C@H](C)C[C@H](C)/C=C/C=C/C=C/1C` [sirolimus, rapamycin], the effectiveness (reported in another review) is listed as 84.5% and the “pooled clinical effectiveness (partial or complete response)” value (reported in one review) is listed as 94.9%.
